In brackets after ≈: the same amount, converted by molar mass.
Legend:
[1] = test system: MCF7; test: Cytotoxicity against human MCF7 cells after 48 hrs by SRB assay; format: functional, cell-based; details: MCF7, 48 h
[2] = species on record: Homo sapiens; test: Inhibition of VEGFR (unknown origin) using [33P]-ATP as substrate at 10 uM after 30 mins by scintillation counting analysis relative to control
[3] = target: Proto-oncogene tyrosine-protein kinase Src (Homo sapiens) (UniProt P12931); test: Inhibition of c-Src (unknown origin) using [33P]-ATP as substrate at 10 uM after 30 mins by scintillation counting analysis relative to control
Proto-oncogene tyrosine-protein kinase Src (Homo sapiens), sequence (P12931 2-536 limits assumed): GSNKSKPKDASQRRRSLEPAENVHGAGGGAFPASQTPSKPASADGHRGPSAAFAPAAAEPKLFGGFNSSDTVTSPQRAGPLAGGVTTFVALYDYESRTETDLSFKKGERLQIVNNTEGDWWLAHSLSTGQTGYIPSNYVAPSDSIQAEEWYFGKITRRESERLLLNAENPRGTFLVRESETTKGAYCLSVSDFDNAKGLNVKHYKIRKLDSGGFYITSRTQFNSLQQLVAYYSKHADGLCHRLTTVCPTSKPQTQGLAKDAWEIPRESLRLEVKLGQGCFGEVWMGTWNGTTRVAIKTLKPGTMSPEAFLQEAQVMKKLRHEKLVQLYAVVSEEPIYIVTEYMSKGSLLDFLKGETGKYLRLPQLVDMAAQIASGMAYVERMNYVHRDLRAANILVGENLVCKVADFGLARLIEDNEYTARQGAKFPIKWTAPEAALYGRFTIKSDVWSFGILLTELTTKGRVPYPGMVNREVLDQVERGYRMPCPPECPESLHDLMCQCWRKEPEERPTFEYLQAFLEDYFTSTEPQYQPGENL

| inhibition [2] [%] | inhibition [3] [%] | Compound | IC50 [1] [µg/mL] |
| --- | --- | --- | --- |
| – | – | O=c1[nH]cnc2c1C1CCCN1C(=S)N2c1ccccc1 (stereo not given) | 20 (≈ 67 µM) |
| – | – | Nc1nc(=S)[nH]c2c1C1CCCCCN1C(=O)N2c1ccccc1 (stereo not given) | 10.8 (≈ 31.6 µM) |
| 25 | 45 | N#CC1=C(N2C(=O)C(=O)N(c3ccccc3)C2=O)N(c2ccccc2)C(=O)N2CCCC12 (stereo not given) | 10.8 (≈ 25.3 µM) |
| – | – | N#CC1=C(NC(=S)Nc2ccccc2)NC(=S)N2CCCC12 (stereo not given) | 20.8 (≈ 63.1 µM) |
| – | – | Nc1nc(=S)[nH]c2c1C1CCCN1C(=O)N2c1ccccc1 (stereo not given) | 13.6 (≈ 43.4 µM) |
| – | – | O=C1N(c2ccccc2)c2[nH]c(=S)sc(=O)c2C2CCCN12 (stereo not given) | 17 (≈ 51.3 µM) |
| – | – | Cc1ccc(NC(=O)CNC2=C(C#N)C3CCCN3C(=S)N2c2ccccc2)cc1 (stereo not given) | 12.8 (≈ 30.7 µM) |
| – | – | N#CC1=C(NC(=O)Nc2ccccc2)N(c2ccccc2)C(=S)N2CCCC12 (stereo not given) | 14.2 (≈ 36.5 µM) |
| 11 | 0 | N=c1c2c([nH]c(=O)n1-c1ccccc1)N(c1ccccc1)C(=O)N1CCCC21 (stereo not given) | 9.6 (≈ 25.7 µM) |
| – | – | O=C1N(c2ccccc2)c2[nH]c(=S)nc(/N=C/c3ccc(Cl)cc3)c2C2CCCCCN12 (stereo not given) | 10.6 (≈ 22.8 µM) |
| – | – | O=C1N(c2ccccc2)c2[nH]c(=S)nc(/N=C/c3ccc(Cl)cc3)c2C2CCCN12 (stereo not given) | 12.4 (≈ 28.4 µM) |
| – | – | Cc1ccc(NC(=O)CNC2=C(C#N)C3CCCN3C(=O)N2c2ccccc2)cc1 (stereo not given) | 21.6 (≈ 53.8 µM) |
| 0 | 0 | N#CCC(=O)NC1=C(C#N)C2CCCN2C(=O)N1c1ccccc1 (stereo not given) | 12.8 (≈ 39.8 µM) |
| – | – | N#CC1=C(NC(=S)Nc2ccccc2)N(c2ccccc2)C(=O)N2CCCC12 (stereo not given) | 16.6 (≈ 42.6 µM) |
| 3 | 81 | O=C1N(c2ccccc2)c2nc[nH]c(=O)c2C2CCCCCN12 (stereo not given) | 11.2 (≈ 36.1 µM) |
| – | – | Nc1nc(=S)[nH]c2c1C1CCCN1C(=S)N2c1ccccc1 (stereo not given) | 22.8 (≈ 69.2 µM) |
| – | – | O=C1N(c2ccccc2)c2nc[nH]c(=O)c2C2CCCN12 (stereo not given) | 14.8 (≈ 52.4 µM) |
| – | – | N#CC1=C(NC(=O)Nc2ccccc2)N(c2ccccc2)C(=O)N2CCCC12 (stereo not given) | 19.8 (≈ 53 µM) |
| – | – | O=C1N(c2ccccc2)c2[nH]c(=S)sc(=O)c2C2CCCCCN12 (stereo not given) | 14 (≈ 38.9 µM) |
| – | – | O=c1sc(=S)[nH]c2c1C1CCCN1C(=S)N2c1ccccc1 (stereo not given) | 18.8 (≈ 54.1 µM) |
| – | – | NNc1ncnc2c1C1CCCN1C(=O)N2c1ccccc1 (stereo not given) | 11 (≈ 37.1 µM) |
| – | – | N#CC1=C(N2C(=O)CN(c3ccccc3)C2=O)N(c2ccccc2)C(=O)N2CCCC12 (stereo not given) | 18.6 (≈ 45 µM) |

— ChEMBL document CHEMBL2434883, “Novel heterocyclic-fused pyrimidine derivatives: synthesis, molecular modeling and pharmacological screening” (Eur J Med Chem, 2013)
